Experimental data from the NIST ThermoML archive (doi:10.1021/je101031j).
Numbers after ± are expanded uncertainties.

Columns and labels:
[1] = refractive index (Na D-line) (dimensionless); settings: 298.15 K; 101.33 kPa; Liquid; Standard Abbe refractometry
[2] = 298.15 K; 101.33 kPa; Liquid; Vibrating tube method
[3] = excess molar enthalpy (molar enthalpy of mixing); xn = mol fraction of the nth substance listed; settings: 298.15 K, 101.3 kPa, Liquid, Calvet calorimetry

**Q.** With CCC(C)(C)O [2-methylbutan-2-ol] as the molecule, how does the refractive index [1] read?
**A.** Its refractive index is 1.4019 ± 0.0005.

**Q.** And the mass density [2]?
**A.** Its mass density is 804.8 ± 0.31 kg/m3.

**Q.** Which excess molar enthalpy ([3]; x1 = 0.0899) does the source give for CCC(C)(C)O [2-methylbutan-2-ol] + CCCCCO here?
**A.** The excess molar enthalpy was -0.0499 ± 0.000574 kcal/mol.

**Q.** What about the excess molar enthalpy ([3]; x1 = 0.18) of the same molecule?
**A.** The excess molar enthalpy was -0.09866 ± 0.000956 kcal/mol.

**Q.** What about the excess molar enthalpy ([3]; x1 = 0.27) of the same molecule?
**A.** The excess molar enthalpy was -0.1359 ± 0.00124 kcal/mol.

**Q.** And the excess molar enthalpy ([3]; x1 = 0.3664)?
**A.** Its excess molar enthalpy is -0.1551 ± 0.00139 kcal/mol.

**Q.** And the excess molar enthalpy ([3]; x1 = 0.4566)?
**A.** The excess molar enthalpy was -0.1636 ± 0.00146 kcal/mol.

**Q.** And the excess molar enthalpy ([3]; x1 = 0.5468)?
**A.** Its excess molar enthalpy is -0.1618 ± 0.00143 kcal/mol.

**Q.** What about the excess molar enthalpy ([3]; x1 = 0.6372) of the same molecule?
**A.** The excess molar enthalpy was -0.1515 ± 0.00136 kcal/mol.

**Q.** What about the excess molar enthalpy ([3]; x1 = 0.7278) of the same molecule?
**A.** The excess molar enthalpy was -0.1268 ± 0.00117 kcal/mol.

**Q.** What about the excess molar enthalpy ([3]; x1 = 0.8185) of the same molecule?
**A.** Its excess molar enthalpy is -0.09235 ± 0.000908 kcal/mol.

**Q.** What about the excess molar enthalpy ([3]; x1 = 0.9091) of the same molecule?
**A.** The excess molar enthalpy was -0.0493 ± 0.000574 kcal/mol.

**Q.** With CCC(C)(C)O [2-methylbutan-2-ol] + CCCCO as the molecule, how does the excess molar enthalpy ([3]; x1 = 0.09) read?
**A.** Its excess molar enthalpy is -0.064 ± 0.000669 kcal/mol.

**Q.** And the excess molar enthalpy ([3]; x1 = 0.1801)?
**A.** Its excess molar enthalpy is -0.1142 ± 0.00108 kcal/mol.

**Q.** And the excess molar enthalpy ([3]; x1 = 0.2702)?
**A.** The excess molar enthalpy was -0.1553 ± 0.00139 kcal/mol.

**Q.** What about the excess molar enthalpy ([3]; x1 = 0.3707) of the same molecule?
**A.** Its excess molar enthalpy is -0.1793 ± 0.00158 kcal/mol.

**Q.** And the excess molar enthalpy ([3]; x1 = 0.4609)?
**A.** The excess molar enthalpy was -0.1912 ± 0.00167 kcal/mol.

**Q.** And the excess molar enthalpy ([3]; x1 = 0.551)?
**A.** The excess molar enthalpy was -0.1882 ± 0.00165 kcal/mol.

**Q.** And the excess molar enthalpy ([3]; x1 = 0.6412)?
**A.** Its excess molar enthalpy is -0.1746 ± 0.00153 kcal/mol.

**Q.** And the excess molar enthalpy ([3]; x1 = 0.7313)?
**A.** The excess molar enthalpy was -0.145 ± 0.00131 kcal/mol.

**Q.** What about the excess molar enthalpy ([3]; x1 = 0.8198) of the same molecule?
**A.** Its excess molar enthalpy is -0.102 ± 0.00098 kcal/mol.

**Q.** What about the excess molar enthalpy ([3]; x1 = 0.9099) of the same molecule?
**A.** Its excess molar enthalpy is -0.0509 ± 0.000574 kcal/mol.

**Q.** Which results are given for CCC(C)(C)O [2-methylbutan-2-ol] + CCCO?
**A.** excess molar enthalpy ([3]; x1 = 0.09): -0.0608 ± 0.000645 kcal/mol; excess molar enthalpy ([3]; x1 = 0.1801): -0.1096 ± 0.00103 kcal/mol; excess molar enthalpy ([3]; x1 = 0.2802): -0.1568 ± 0.00141 kcal/mol; excess molar enthalpy ([3]; x1 = 0.3701): -0.1879 ± 0.00165 kcal/mol; excess molar enthalpy ([3]; x1 = 0.4599): -0.2053 ± 0.00177 kcal/mol; excess molar enthalpy ([3]; x1 = 0.5497): -0.2041 ± 0.00177 kcal/mol; excess molar enthalpy ([3]; x1 = 0.6395): -0.1921 ± 0.00167 kcal/mol; excess molar enthalpy ([3]; x1 = 0.7292): -0.1605 ± 0.00143 kcal/mol; excess molar enthalpy ([3]; x1 = 0.8189): -0.1131 ± 0.00105 kcal/mol; excess molar enthalpy ([3]; x1 = 0.9088): -0.0556 ± 0.000621 kcal/mol

**Q.** Which results are given for CCC(C)(C)O [2-methylbutan-2-ol] + CCO?
**A.** excess molar enthalpy ([3]; x1 = 0.0898): -0.0594 ± 0.000645 kcal/mol; excess molar enthalpy ([3]; x1 = 0.1796): -0.1128 ± 0.00105 kcal/mol; excess molar enthalpy ([3]; x1 = 0.2807): -0.1686 ± 0.00148 kcal/mol; excess molar enthalpy ([3]; x1 = 0.3707): -0.2039 ± 0.00177 kcal/mol; excess molar enthalpy ([3]; x1 = 0.4607): -0.2271 ± 0.00194 kcal/mol; excess molar enthalpy ([3]; x1 = 0.5507): -0.2326 ± 0.00198 kcal/mol; excess molar enthalpy ([3]; x1 = 0.6406): -0.2178 ± 0.00186 kcal/mol; excess molar enthalpy ([3]; x1 = 0.7306): -0.1842 ± 0.0016 kcal/mol; excess molar enthalpy ([3]; x1 = 0.8205): -0.1302 ± 0.0012 kcal/mol; excess molar enthalpy ([3]; x1 = 0.9103): -0.0648 ± 0.000693 kcal/mol

**Q.** Which results are given for CCC(C)(C)O [2-methylbutan-2-ol] + CO?
**A.** excess molar enthalpy ([3]; x1 = 0.0908): -0.0613 ± 0.000669 kcal/mol; excess molar enthalpy ([3]; x1 = 0.1814): -0.1248 ± 0.00115 kcal/mol; excess molar enthalpy ([3]; x1 = 0.2731): -0.1921 ± 0.00167 kcal/mol; excess molar enthalpy ([3]; x1 = 0.3644): -0.2497 ± 0.00213 kcal/mol; excess molar enthalpy ([3]; x1 = 0.4608): -0.2868 ± 0.00239 kcal/mol; excess molar enthalpy ([3]; x1 = 0.5513): -0.3031 ± 0.00263 kcal/mol; excess molar enthalpy ([3]; x1 = 0.6416): -0.2905 ± 0.00239 kcal/mol; excess molar enthalpy ([3]; x1 = 0.7319): -0.2556 ± 0.00217 kcal/mol; excess molar enthalpy ([3]; x1 = 0.8195): -0.1911 ± 0.00167 kcal/mol; excess molar enthalpy ([3]; x1 = 0.9101): -0.1008 ± 0.000956 kcal/mol

**Q.** Which results are given for CCCCO [butan-1-ol]?
**A.** refractive index [1]: 1.3973 ± 0.0005; mass density [2]: 805.61 ± 0.31 kg/m3

**Q.** With CCO [ethanol] as the molecule, how does the refractive index [1] read?
**A.** The refractive index was 1.3591 ± 0.0005.

**Q.** And the mass density [2]?
**A.** Its mass density is 785.22 ± 0.31 kg/m3.

**Q.** Which refractive index [1] does the source give for CO [methanol] here?
**A.** The refractive index was 1.3264 ± 0.0005.

**Q.** What about the mass density [2] of the same molecule?
**A.** Its mass density is 786.42 ± 0.31 kg/m3.

**Q.** Which results are given for CCCCCO [pentan-1-ol]?
**A.** refractive index [1]: 1.4086 ± 0.0005; mass density [2]: 810.82 ± 0.31 kg/m3

**Q.** With CCCO [propan-1-ol] as the molecule, how does the refractive index [1] read?
**A.** The refractive index was 1.383 ± 0.0005.

**Q.** What about the mass density [2] of the same molecule?
**A.** The mass density was 799.46 ± 0.31 kg/m3.
